Data taken from patent US11877996B1 (priority 2023, dated 2024).
Entries after “also recorded” stand apart in the source; their conditions may differ.

What was measured:
[1] = tested on: Anopheles gambiae mosquitoes; test: Mosquito mortality observed in SMFA (insecticidal activity); format: in vivo; conditions: 0.1 to 3 μM in blood meal
Method: (§1) P. falciparum (NF54) was cultured in the complete RPMI-1640 containing 4% new O+ human red blood cells, 10% human AB+ serum, and 12.5 μg/ml of hypoxanthine in a candle jar at 37° C. Standard membrane feeding assays (SMFA) were used to examine the efficacy of AST. In brief, 10 ml of day-15 cultured P. falciparum containing ˜2% stage V gametocytes in a 15 ml centrifuge tube was centrifuged at 650×g for 5 min at RT. After the supernatant was removed, the cells were re-suspended in 1 ml of pre-warmed human AB− serum (37° C.), to which 1 ml of O+ hematocrit was added. 300 μl of the resulting infected blood were mixed with 2 μl of AST at different concentrations, yielding a final concentration of 0, 0.1, 0.3, 1, or 3 μM, which was fed a hundred 3-5-day-old female mosquitoes for 30 minutes. The unfed mosquitoes were removed, and the engorged mosquitoes were maintained with 10% sugar in the insectary. Seven days post-infection, the midguts were dissected and stained with 0.1% mercury dibromofluorescein salt in PBS for 30 minutes. The number of oocysts was counted under a 10× light microscope.

[2] = tested on: sexual-stage P. falciparum transmission to Anopheles gambiae; test: Transmission-blocking standard membrane feeding assay (SMFA), oocysts in An. gambiae midguts; format: in vivo, Plasmodium falciparum
Method: as §1, with “300 μl of the resulting infected blood were mixed with 2 μl of AST at different concentrations, yielding a final concentration of 0, 0.1, 0.3, 1, or 3 μM, which was fed a hundred 3-5-day-old female mosquitoes for 30 minutes.” left out

human GS-II (hGS-II) = molecular target: T1, human GS-II (hGS-II) (Homo sapiens, UniProt P15104); test: Glutamine synthetase assay (Glutamine/Glutamate-GLO), human GS-II; format: biochemical; conditions: 1 μM AST, 1 μM hGS-II, 30 min
T1 construct: purchased BioVision Inc
T1 sequence (P15104 whole entry): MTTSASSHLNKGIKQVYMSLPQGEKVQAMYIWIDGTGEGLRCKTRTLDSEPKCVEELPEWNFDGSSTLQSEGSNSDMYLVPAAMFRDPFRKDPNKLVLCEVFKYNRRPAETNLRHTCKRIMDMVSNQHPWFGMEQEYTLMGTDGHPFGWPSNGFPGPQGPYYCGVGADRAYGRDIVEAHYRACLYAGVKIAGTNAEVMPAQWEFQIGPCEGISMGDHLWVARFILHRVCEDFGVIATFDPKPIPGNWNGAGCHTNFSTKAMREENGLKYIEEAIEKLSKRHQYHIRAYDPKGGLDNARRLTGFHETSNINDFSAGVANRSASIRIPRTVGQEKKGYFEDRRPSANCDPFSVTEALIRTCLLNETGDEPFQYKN
Method: (§2) The activity and inhibition profiles of purified MBP-fused PfGS-I or human GS-II (hGS-II) (BioVision Inc., Milpitas, CA, USA) in the presence or absence of AST were estimated from glutamine production using Glutamine/Glutamate-GLO™ Assay Kit (Promega, Madison, WI). The assay mixture (50 mM imidazole-HCl buffer (pH 7.0), 7.6 mM ATP, 50 mM magnesium chloride, 50 mM ammonium chloride) with or without the indicated concentration of GS enzyme was preincubated in the presence or absence of the indicated concentrations of AST for 15 min at room temperature. The reaction was initiated by addition of L-glutamate at 0.1 mM, final concentration. The reaction mixtures were incubated at 37° C. with shaking at 300 rpm for indicated time. The reactions were terminated by chilling the reaction mixture in ice water and filtered with 30 kDa Amicon Ultra centrifugal filters at 4° C. Glutamate concentrations in the filtered samples were determined using Glutamine/Glutamate-GLO™ Assay as instructed in the kit's manual, from which glutamine concentrations were estimated by subtracting the glutamate concentrations from the initial concentrations (0.1 mM). The half maximal effective concentration (EC50) of AST for PfGS-I was calculated using Sigma Plot (Systat Software, Inc., Sun Jose, CA).

[3] = tested on: human cell lines (HEK293, THP-1, macrophage, HepG2, Caco-2)
[4] = tested on: human cell lines (HEK293, THP-1, macrophage, HepG2, Caco-2); test: Stability in culture media and human cell lysates (arsenic speciation by HPLC-ICP-MS); conditions: 100 μM AST, 48 h, five human cell lines
[5] = tested on: macrophage-like cells differentiated from THP-1
[6] = tested on: human cell lines (HEK293, THP-1, macrophage, HepG2, Caco-2); test: MTT cytotoxicity assay, five human cell lines overall
[7] = tested on: asexual-stage P. falciparum; test: Antimalarial activity on the asexual stage of P. falciparum (parasitemia in infected red blood cells); format: cell-based, Plasmodium falciparum
Method: 3-5-day cultured P. falciparum-infected red blood cells (iRBCs) were mixed with fresh human RBCs (AB+ type) in complete RPMI 1640 to prepare cultures with 0.5% parasitemia and 2% hematocrit. AST was dissolved in DMSO. […] The plate was incubated in a candle jar at 37° C. Approximately 48 h later, the medium was replaced with fresh medium containing the same concentration of AST. Parasitemia was recorded on day 4 post-incubation.

[8] = molecular target: T2, PfGS-I (P. falciparum glutamine synthetase, MBP-fused) (Plasmodium falciparum, UniProt W7JM41); test: Glutamine synthetase assay (Glutamine/Glutamate-GLO), PfGS-I; format: biochemical
T2 sequence (W7JM41 1-544): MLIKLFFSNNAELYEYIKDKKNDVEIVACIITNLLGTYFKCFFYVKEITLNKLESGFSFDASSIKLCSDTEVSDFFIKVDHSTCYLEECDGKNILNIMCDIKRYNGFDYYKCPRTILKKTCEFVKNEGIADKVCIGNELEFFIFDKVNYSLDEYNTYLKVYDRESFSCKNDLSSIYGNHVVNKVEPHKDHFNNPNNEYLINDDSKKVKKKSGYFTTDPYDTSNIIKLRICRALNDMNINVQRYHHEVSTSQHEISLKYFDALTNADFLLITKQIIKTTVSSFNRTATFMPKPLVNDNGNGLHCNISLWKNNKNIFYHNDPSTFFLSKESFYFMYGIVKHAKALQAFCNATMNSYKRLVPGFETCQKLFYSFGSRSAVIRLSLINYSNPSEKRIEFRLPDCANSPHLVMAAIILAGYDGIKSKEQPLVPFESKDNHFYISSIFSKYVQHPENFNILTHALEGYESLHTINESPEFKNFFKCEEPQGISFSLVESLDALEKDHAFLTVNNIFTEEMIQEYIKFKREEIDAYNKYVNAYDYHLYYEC
Method: as §2

C[As](=O)(O)CC[C@H](N)C(=O)O [AST, 2-amino-4-(hydroxymethylarsinoyl)butanoate]
dead mosquitoes (insecticidal activity) [1]: no dead mosquitoes were observed | inhibition of P. falciparum transmission to An. gambiae compared to PT and MSO ([2]; 3 μM, SMFA, oocysts day 7): significantly inhibits | inhibition of malaria transmission ([2]; 3 μM, SMFA, oocysts day 7): completely inhibited | inhibition of transmission to mosquitoes ([2]; AST at 100 μM): completely inhibits | EC50 ([2]; SMFA, An. gambiae, oocysts day 7 post-infection, read-out: EC50 in blocking transmission of sexual-stage P. falciparum to mosquitos (50% of oocysts per mosquito vs control)): 0.34 µM | effect on hGS-II activity (human GS-II (hGS-II)): did not significantly reduce; also recorded: little effect | permeability (total arsenic levels in cells) [3]: permeable to cytomembrane | permeability to HepG2 cells [3]: moderately permeable | CC50 (Caco-2 cells): 150 to 200 µM | arsenic species in culture media and cell lysates (stability) [4]: almost exclusively AST | CC50 [5]: > 250 µM | effect on viability of the tested human cell lines ([6]; AST at 100 μM, most of the tested cell lines): little effect | times less cytotoxic than As(III) ([6]; ratio of LC50 values, human cell lines): > 10 times | CC50 (HepG2 cells): > 250 µM | inhibition of P. falciparum proliferation in blood ([7]; AST at 100 μM): completely inhibits | EC50 ([7]; infected human blood, 0.5% parasitemia, 2% hematocrit, day 4, read-out: EC50 in inhibiting asexual-stage P. falciparum (50% of parasitemia rate vs AST-free control)): 13.9 µM | CC50 (HEK293 cells): > 250 µM | CC50 (THP-1 cells): > 250 µM | EC50 ([8]; 0.5 μM PfGS-I, 2 hours, read-out: EC50 for PfGS-I inhibition): 0.4 µM | reduction of PfGS-I activity ([8]; 1 μM AST): more than 60% | activity of PfGS-I compared with the control without AST treatment ([8]; 1 μM AST, 1 μM PfGS-I, 30 min): less than 40% | inhibition of PfGS-I activity ([8]; AST at 100 μM): completely inhibits
